Key:
[1] = system: tumor kidney (RCC) tissue lysate, tyrosine kinase activity; test: Peptide microarray (PamChip) kinase activity profiling of tumor kidney lysate with kinase inhibitor added to the lysate; type: biochemical, human
Method: (§1) Both normal and tumor kidney tissue were derived from resection material immediately after surgery. These tissues were snap-frozen and were stored at −85° C. The tissues were cut in slices of 10 μm and stored. For protein extraction 6 slices were lysed in 100 μL of Mammalian Protein Extraction Buffer (M-PER), a lysis buffer containing HALT protease and phosphatase inhibitors, for 60 minutes on ice. The protein concentration was determined for each sample and for the analysis on a peptide microarray comprising 144 peptides typically 5 μg of protein was used. […]
(§2) To assess the effect of a kinase inhibitor, the kinase inhibitors sorafinib or sunitinib were added to the lysate before application onto the peptide microarray. During 60 cycles of pumping the lysate reaction mixture through the array, peptide phosphorylation was detected by the fluorescently labelled PY20 anti-phosphotyrosine antibody present in the lysate reaction mixture. Real time data were obtained by measuring fluorescence of the bound anti-phosphotyrosine antibody after each 5 cycles. […] Signals for each spot on the image were quantified. Image quantification and data processing was conducted with dedicated PamGene software (Evolve and Bionavigator). […]

[2] = system: normal kidney tissue (NK) lysate, tyrosine kinase activity; test: Peptide microarray (PamChip) kinase activity profiling of normal kidney lysate with kinase inhibitor added to the lysate; type: biochemical, human
Method: as §1, §2

CNC(=O)c1cc(Oc2ccc(NC(=O)Nc3ccc(Cl)c(C(F)(F)F)c3)cc2)ccn1 [sorafinib, sorafenib]
phosphorylation pattern compared to the control (DMSO) ([1]; lysate of tumor kidney (RCC) tissue of one patient, inhibitor pipetted into lysate, FIG. 4 heatmap): decreased phosphorylation pattern | inhibition of peptide phosphorylation, peptides indicated by downwards arrows ([1]; tumor tissue, on-chip treatment, in comparison to other peptides, FIG. 4): highly inhibited | phosphorylation pattern compared to the control (DMSO) ([2]; lysate of normal kidney tissue (NK) of one patient, inhibitor pipetted into lysate, FIG. 4 heatmap): decreased phosphorylation pattern | inhibition of peptide phosphorylation, peptides indicated by upward arrows ([2]; normal tissue, on-chip treatment, candidate markers for off-target effects, FIG. 4): show inhibition

Reference: patent US20120115754A1, “METHOD FOR DIAGNOSING AND/OR TYPING RENAL CELL CARCINOMA” (priority 2009, published 2012)
